For 21 compounds, Ki results are on record in patent US20240082223A1, “DIHYDROFUROPYRIDINE DERIVATIVES AS RHO- KINASE INHIBITORS” (CHIESI FARMACEUTICI S.P.A., priority 2020, published 2024).

Format in all cases: biochemical
In experiment [1] the target is T1, ROCK1 (Homo sapiens, UniProt Q13464). In words: In vitro inhibitory activity assay ROCK1 (Method B, ADP-Glo, 200 μM ATP). As to conditions: ATP 200 μM, read-out: Method B ROCK 1 (Ki). How it is done:
(§1) In Vitro Inhibitory Activity Assay Description ROCK1 and ROCK2
(§2) The effectiveness of compounds of the present invention to inhibit Rho kinase activity can be determined in a 10 μl assay containing 40 mM Tris pH7.5, 20 mM MgCl2 0.1 mg/mL BSA, 50 μM DTT and 2.5 μM peptide substrate (Myelin Basic Protein) using an ADP-Glo kit (Promega). Compounds were dissolved in DMSO such that the final concentration of DMSO was 1% in the assay. All reactions/incubations are performed at 25° C. Compound (2 μL) and either Rho kinase 1 or 2 (4 μl) were mixed and incubated for 30 min. Reactions were initiated by addition of ATP (4 μL) such that the final concentration of ATP in the assay was 200 μM. After a 1 hour incubation 10111 of ADP-Glo Reagent was added and after a further 45 minute incubation 20 μL of Kinase Detection Buffer was added and the mixture incubated for a further 30 minutes. The luminescent signal was measured on a luminometer. […] Compounds were tested in dose-response format and the inhibition of kinase activity was calculated at each concentration of compound. To determine the IC50 (concentration of compound required to inhibit 50% of the enzyme activity) data were fit to a plot of % inhibition vs Log10 compound concentration using a sigmoidal fit with a variable slope and fixing the maximum to 100% and the minimum to 0%. To determine the Ki values the Cheng-Prusoff equation was utilized (Ki=IC50/(1[S]/Km).
(In general: ADP-Glo first removes unused ATP, then detects ADP through luciferase.)

The target in experiment [2] is T2, ROCK2 (Homo sapiens, UniProt O75116). The experiment is described as follows: In vitro inhibitory activity assay ROCK2 (Method B, ADP-Glo, 200 μM ATP). As to conditions: ATP 200 μM, read-out: Method B ROCK 2 (Ki). How it is done: as §1, §2
Experiment [3] addresses T2, ROCK2. In words: In vitro inhibitory activity assay ROCK2 (Method A, ADP-Glo, 10 μM ATP). Conditions: ATP 10 μM, read-out: Method A ROCK 2 (Ki). The protocol: (§3) In vitro inhibitory activity assay description ROCK1 and ROCK2
as §2, with “(2 uL)” for “(2 μL)”, “was 10” for “was 200”, “incubation […]” for “incubation 10111”, “45 minutes” for “45 minute”, “20 uL” for “20 μL”, “utilized (Ki=IC50/(1+[S]/Km).” for “utilized (Ki=IC50/(1[S]/Km).”

The target of experiment [4] is T1, ROCK1. In words: In vitro inhibitory activity assay ROCK1 (Method A, ADP-Glo, 10 μM ATP). Conditions: ATP 10 μM, read-out: Method A ROCK 1 (Ki). The protocol: as §3
as §2, with “(2 uL)” for “(2 μL)”, “was 10” for “was 200”, “incubation […]” for “incubation 10111”, “45 minutes” for “45 minute”, “20 uL” for “20 μL”, “utilized (Ki=IC50/(1+[S]/Km).” for “utilized (Ki=IC50/(1[S]/Km).”

T1 sequence (Q13464 whole entry): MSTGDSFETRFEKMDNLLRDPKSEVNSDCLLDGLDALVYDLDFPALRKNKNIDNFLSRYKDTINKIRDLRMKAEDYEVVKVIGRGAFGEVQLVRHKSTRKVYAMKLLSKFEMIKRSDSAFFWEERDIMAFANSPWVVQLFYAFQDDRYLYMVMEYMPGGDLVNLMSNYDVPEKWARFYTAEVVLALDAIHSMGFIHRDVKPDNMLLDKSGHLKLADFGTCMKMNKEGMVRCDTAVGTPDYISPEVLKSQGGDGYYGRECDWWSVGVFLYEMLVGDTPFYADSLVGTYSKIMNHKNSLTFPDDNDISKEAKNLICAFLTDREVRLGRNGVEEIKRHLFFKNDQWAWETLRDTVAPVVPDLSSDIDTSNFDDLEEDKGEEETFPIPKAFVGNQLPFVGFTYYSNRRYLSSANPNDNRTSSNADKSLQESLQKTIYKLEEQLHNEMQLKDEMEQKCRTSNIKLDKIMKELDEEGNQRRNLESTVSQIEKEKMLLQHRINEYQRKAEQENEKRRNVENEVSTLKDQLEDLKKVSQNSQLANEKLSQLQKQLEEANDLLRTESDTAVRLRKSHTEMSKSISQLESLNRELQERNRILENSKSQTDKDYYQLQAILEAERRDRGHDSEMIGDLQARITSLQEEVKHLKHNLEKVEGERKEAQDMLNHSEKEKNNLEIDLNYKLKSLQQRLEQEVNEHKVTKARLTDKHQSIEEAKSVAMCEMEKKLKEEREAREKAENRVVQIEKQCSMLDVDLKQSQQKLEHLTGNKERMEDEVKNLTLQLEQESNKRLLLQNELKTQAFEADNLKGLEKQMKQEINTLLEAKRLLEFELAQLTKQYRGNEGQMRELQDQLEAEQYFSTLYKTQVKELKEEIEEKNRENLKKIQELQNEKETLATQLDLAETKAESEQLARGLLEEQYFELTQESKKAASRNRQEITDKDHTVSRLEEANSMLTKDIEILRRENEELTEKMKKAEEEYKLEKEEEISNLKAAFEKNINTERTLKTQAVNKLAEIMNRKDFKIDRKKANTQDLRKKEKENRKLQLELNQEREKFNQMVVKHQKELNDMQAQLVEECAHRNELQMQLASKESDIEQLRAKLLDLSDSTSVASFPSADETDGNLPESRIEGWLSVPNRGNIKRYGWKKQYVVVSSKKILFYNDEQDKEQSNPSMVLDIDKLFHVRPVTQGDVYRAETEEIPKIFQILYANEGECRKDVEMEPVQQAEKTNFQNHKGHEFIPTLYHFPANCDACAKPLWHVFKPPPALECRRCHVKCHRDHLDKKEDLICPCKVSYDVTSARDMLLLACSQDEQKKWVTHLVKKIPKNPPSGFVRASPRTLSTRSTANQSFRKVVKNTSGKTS
T2 sequence (O75116 whole entry): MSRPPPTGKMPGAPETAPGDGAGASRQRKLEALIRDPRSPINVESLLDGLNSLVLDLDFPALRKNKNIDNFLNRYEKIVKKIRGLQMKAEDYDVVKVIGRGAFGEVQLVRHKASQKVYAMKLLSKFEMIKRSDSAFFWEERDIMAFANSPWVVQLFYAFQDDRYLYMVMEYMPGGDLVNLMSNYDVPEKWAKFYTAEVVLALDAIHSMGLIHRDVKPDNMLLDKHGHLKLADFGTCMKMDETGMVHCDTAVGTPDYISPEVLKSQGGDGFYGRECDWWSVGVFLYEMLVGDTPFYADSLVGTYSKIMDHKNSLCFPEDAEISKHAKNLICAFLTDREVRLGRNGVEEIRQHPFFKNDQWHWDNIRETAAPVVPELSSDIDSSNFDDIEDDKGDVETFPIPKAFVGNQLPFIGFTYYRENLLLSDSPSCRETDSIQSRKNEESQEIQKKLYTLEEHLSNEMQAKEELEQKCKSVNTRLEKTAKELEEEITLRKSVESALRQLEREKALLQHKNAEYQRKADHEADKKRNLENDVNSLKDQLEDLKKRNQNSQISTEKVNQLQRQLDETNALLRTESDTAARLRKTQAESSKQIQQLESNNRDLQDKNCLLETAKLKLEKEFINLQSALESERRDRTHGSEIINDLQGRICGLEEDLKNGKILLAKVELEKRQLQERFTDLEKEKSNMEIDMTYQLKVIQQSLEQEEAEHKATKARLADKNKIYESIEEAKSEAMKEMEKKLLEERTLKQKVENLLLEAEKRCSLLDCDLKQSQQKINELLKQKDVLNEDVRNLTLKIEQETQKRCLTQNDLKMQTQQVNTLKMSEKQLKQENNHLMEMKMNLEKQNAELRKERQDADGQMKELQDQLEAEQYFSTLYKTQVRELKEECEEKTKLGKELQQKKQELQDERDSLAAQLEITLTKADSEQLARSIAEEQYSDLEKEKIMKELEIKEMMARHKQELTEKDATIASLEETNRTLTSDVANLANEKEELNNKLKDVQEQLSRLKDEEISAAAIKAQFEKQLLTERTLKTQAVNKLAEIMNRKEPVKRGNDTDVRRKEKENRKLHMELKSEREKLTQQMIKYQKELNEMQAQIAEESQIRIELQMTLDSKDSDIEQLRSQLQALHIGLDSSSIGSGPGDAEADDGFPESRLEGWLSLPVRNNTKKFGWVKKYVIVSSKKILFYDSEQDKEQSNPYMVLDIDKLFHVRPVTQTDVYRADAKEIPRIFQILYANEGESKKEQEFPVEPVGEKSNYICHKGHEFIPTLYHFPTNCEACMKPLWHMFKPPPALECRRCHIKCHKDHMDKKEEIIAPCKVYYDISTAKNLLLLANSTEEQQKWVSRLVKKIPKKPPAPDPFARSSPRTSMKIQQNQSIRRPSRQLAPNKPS

One may read the Ki as the equilibrium dissociation constant of an inhibitor or competing ligand from its target. With `O=C(NCc1ccccn1)c1cccc(CNc2ncc(-c3cn[nH]c3)c3c2CCO3)c1` [Example 4, 3-(((7-(1H-pyrazol-4-yl)-2,3-dihydrofuro[3,2-c]pyridin-4-yl)amino)methyl)-N-(pyridin-2-ylmethyl)benzamide], the Ki at ROCK1 [1] and on ROCK2 [2] was 3 to 30 nM throughout.

Regarding `COCCNC(=O)c1cccc(CNc2ncc(-c3cn[nH]c3)c3c2CCO3)c1` [Example 7, 3-(((7-(1H-pyrazol-4-yl)-2,3-dihydrofuro[3,2-c]pyridin-4-yl)amino)methyl)-N-(2-methoxyethyl)benzamide], the results for the Ki on ROCK1 [1] and at ROCK2 [2] were 3 to 30 nM and at most 3 nM, respectively.

Take `O=C(NCc1cncnc1)c1cccc(CNc2ncc(-c3cn[nH]c3)c3c2CCO3)c1` [Example 9, 3-(((7-(1H-pyrazol-4-yl)-2,3-dihydrofuro[3,2-c]pyridin-4-yl)amino)methyl)-N-(pyrimidin-5-ylmethyl)benzamide]: the Ki at ROCK1 [1] and at ROCK2 [2] was 3 to 30 nM in each case.

For the compound `O=C(NCc1ccon1)c1cccc(CNc2ncc(-c3cn[nH]c3)c3c2CCO3)c1` [Example 13, 3-(((7-(1H-pyrazol-4-yl)-2,3-dihydrofuro[3,2-c]pyridin-4-yl)amino)methyl)-N-(isoxazol-3-ylmethyl)benzamide], the Ki on ROCK1 [1] was 3 to 30 nM; on ROCK2 [2], at most 3 nM.

As to `CN1CCc2nc(CNC(=O)c3cccc(CNc4ncc(-c5cn[nH]c5)c5c4CCO5)c3)sc2C1` [Example 29, 3-(((7-(1H-pyrazol-4-yl)-2,3-dihydrofuro[3,2-c]pyridin-4-yl)amino)methyl)-N-((5-methyl-4,5,6,7-tetrahydrothiazolo[5,4-c]pyridin-2-yl)methyl)benzamide], the Ki is at most 3 nM at ROCK2 [3] and 3 to 30 nM on ROCK1 [4].

Regarding `CN1Cc2ccc(CNC(=O)c3cccc(CNc4ncc(-c5cn[nH]c5)c5c4CCO5)c3)cc2C1` [Example 30, 3-(((7-(1H-pyrazol-4-yl)-2,3-dihydrofuro[3,2-c]pyridin-4-yl)amino)methyl)-N-((2-methylisoindolin-5-yl)methyl)benzamide], the Ki on ROCK2 [3] and on ROCK1 [4] was at most 3 nM in each case.

With `CN(C)Cc1ccc(C(=O)Nc2cccc(CNc3ncc(-c4cn[nH]c4)c4c3CCO4)c2)cc1` [Example 35, N-(3-(((7-(1H-Pyrazol-4-yl)-2,3-dihydrofuro[3,2-c]pyridin-4-yl)amino)methyl)phenyl)-4-((dimethylamino)methyl)benzamide], the Ki on ROCK2 [3] and on ROCK1 [4] was at most 3 nM throughout.

Take `CN1CCc2sc(C(=O)Nc3cccc(CNc4ncc(-c5cn[nH]c5)c5c4CCO5)c3)nc2C1` [Example 36, N-(3-(((7-(1H-pyrazol-4-yl)-2,3-dihydrofuro[3,2-c]pyridin-4-yl)amino)methyl)phenyl)-5-methyl-4,5,6,7-tetrahydrothiazolo[4,5-c]pyridine-2-carboxamide]: the Ki at ROCK2 [3] and on ROCK1 [4] was at most 3 nM throughout.

As for `CN1CCc2nc(C(=O)Nc3cccc(CNc4ncc(-c5cn[nH]c5)c5c4CCO5)c3)sc2C1` [Example 37, N-(3-(((7-(1H-pyrazol-4-yl)-2,3-dihydrofuro[3,2-c]pyridin-4-yl)amino)methyl)phenyl)-5-methyl-4,5,6,7-tetrahydrothiazolo[5,4-c]pyridine-2-carboxamide], the Ki at ROCK2 [3] and on ROCK1 [4] was at most 3 nM in each case.

Take `O=C(Nc1cccc(CNc2ncc(-c3cn[nH]c3)c3c2CCO3)c1)c1nc2c(s1)CN(CCO)CC2` [Example 38, N-(3-(((7-(1H-pyrazol-4-yl)-2,3-dihydrofuro[3,2-c]pyridin-4-yl)amino)methyl)phenyl)-5-(2-hydroxyethyl)-4,5,6,7-tetrahydrothiazolo[5,4-c]pyridine-2-carboxamide]: the Ki at ROCK2 [3] and on ROCK1 [4] was at most 3 nM each time.

For `Cn1ncc2cc(C(=O)Nc3cccc(CNc4ncc(-c5cn[nH]c5)c5c4CCO5)c3)ccc21` [Example 39, N-(3-(((7-(1H-pyrazol-4-yl)-2,3-dihydrofuro[3,2-c]pyridin-4-yl)amino)methyl)phenyl)-1-methyl-1H-indazole-5-carboxamide], the Ki on ROCK2 [3] and at ROCK1 [4] was at most 3 nM each time.

Consider `O=C(Nc1cccc(CNc2ncc(-c3cn[nH]c3)c3c2CCO3)c1)c1ccc2c(c1)CCNC2` [Example 40, N-(3-(((7-(1H-pyrazol-4-yl)-2,3-dihydrofuro[3,2-c]pyridin-4-yl)amino)methyl)phenyl)-1,2,3,4-tetrahydroisoquinoline-6-carboxamide], for which the Ki on ROCK2 [3] and at ROCK1 [4] was at most 3 nM in each case.

As for `Cn1nc(C(=O)Nc2cccc(CNc3ncc(-c4cn[nH]c4)c4c3CCO4)c2)c2ccccc21` [Example 41, N-(3-(((7-(1H-pyrazol-4-yl)-2,3-dihydrofuro[3,2-c]pyridin-4-yl)amino)methyl)phenyl)-1-methyl-1H-indazole-3-carboxamide], the Ki at ROCK2 [3] was 3 to 30 nM; at ROCK1 [4], above 30 nM.

With `Cn1ncc2c(C(=O)Nc3cccc(CNc4ncc(-c5cn[nH]c5)c5c4CCO5)c3)cccc21` [Example 42, N-(3-(((7-(1H-pyrazol-4-yl)-2,3-dihydrofuro[3,2-c]pyridin-4-yl)amino)methyl)phenyl)-1-methyl-1H-indazole-4-carboxamide], the inhibitory constant (Ki) is at most 3 nM on ROCK2 [3] and 3 to 30 nM at ROCK1 [4].

In the case of `O=C(Nc1cc(CNc2ncc(-c3cn[nH]c3)c3c2CCO3)ccc1F)c1ccc2c(c1)CCNC2` [Example 47, N-(5-(((7-(1H-pyrazol-4-yl)-2,3-dihydrofuro[3,2-c]pyridin-4-yl)amino)methyl)-2-fluorophenyl)-1,2,3,4-tetrahydroisoquinoline-6-carboxamide], the Ki on ROCK2 [3] and on ROCK1 [4] was at most 3 nM in each case.

With `CN(C)Cc1cccc(C(=O)Nc2cccc(CNc3ncc(-c4cn[nH]c4)c4c3CCO4)c2)c1` [Example 49, N-(3-(((7-(1H-pyrazol-4-yl)-2,3-dihydrofuro[3,2-c]pyridin-4-yl)amino)methyl)phenyl)-3-((dimethylamino)methyl)benzamide], the Ki on ROCK2 [3] and on ROCK1 [4] was at most 3 nM throughout.

For the compound `O=C(Cc1ccccc1)Nc1cccc(CNc2ncc(-c3cn[nH]c3)c3c2CCO3)c1` [Example 50, N-(3-(((7-(1H-pyrazol-4-yl)-2,3-dihydrofuro[3,2-c]pyridin-4-yl)amino)methyl)phenyl)-2-phenylacetamide], the Ki on ROCK2 [3] and on ROCK1 [4] was 3 to 30 nM throughout.

Consider `CN1CCc2cc(C(=O)Nc3cccc(CNc4ncc(-c5cn[nH]c5)c5c4CCO5)c3)cnc2C1` [Example 51, N-(3-(((7-(1H-pyrazol-4-yl)-2,3-dihydrofuro[3,2-c]pyridin-4-yl)amino)methyl)phenyl)-7-methyl-5,6,7,8-tetrahydro-1,7-naphthyridine-3-carboxamide], for which the Ki at ROCK2 [3] and on ROCK1 [4] was at most 3 nM each time.

Consider `CC(=O)Nc1cccc(C(C)Nc2ncc(-c3cn[nH]c3)c3c2CCO3)c1` (stereo not drawn) [Example 52, N-(3-(1-((7-(1H-pyrazol-4-yl)-2,3-dihydrofuro[3,2-c]pyridin-4-yl)amino)ethyl)phenyl)acetamide], for which the Ki at ROCK2 [3] and on ROCK1 [4] was 3 to 30 nM each time.

Turning to `O=C(NCc1ccncc1)c1cccc(CNc2ncc(-c3cn[nH]c3)c3c2CCO3)c1` [Example 53, 3-(((7-(1H-pyrazol-4-yl)-2,3-dihydrofuro[3,2-c]pyridin-4-yl)amino)methyl)-N-(pyridin-4-ylmethyl)benzamide], the Ki on ROCK2 [3] and on ROCK1 [4] was at most 3 nM in each case.

For `O=C(NC1CCN(Cc2ccccc2)CC1)c1cccc(CNc2ncc(-c3cn[nH]c3)c3c2CCO3)c1` [Example 54, 3-(((7-(1H-pyrazol-4-yl)-2,3-dihydrofuro[3,2-c]pyridin-4-yl)amino)methyl)-N-(1-benzylpiperidin-4-yl)benzamide], the inhibition constant (Ki) on ROCK2 [3] and at ROCK1 [4] was at most 3 nM in each case.
